{
  "source": "patent US20090062294A1",
  "about": "“HETEROARYL-SUBSTITUTED UREA MODULATORS OF FATTY ACID AMIDE HYDROLASE” (priority 2007, published 2009)",
  "key": {"[1]": {"biological_target": "T1, rat FAAH (Rattus norvegicus, UniProt P97612)", "T1 sequence (P97612 1-579)": "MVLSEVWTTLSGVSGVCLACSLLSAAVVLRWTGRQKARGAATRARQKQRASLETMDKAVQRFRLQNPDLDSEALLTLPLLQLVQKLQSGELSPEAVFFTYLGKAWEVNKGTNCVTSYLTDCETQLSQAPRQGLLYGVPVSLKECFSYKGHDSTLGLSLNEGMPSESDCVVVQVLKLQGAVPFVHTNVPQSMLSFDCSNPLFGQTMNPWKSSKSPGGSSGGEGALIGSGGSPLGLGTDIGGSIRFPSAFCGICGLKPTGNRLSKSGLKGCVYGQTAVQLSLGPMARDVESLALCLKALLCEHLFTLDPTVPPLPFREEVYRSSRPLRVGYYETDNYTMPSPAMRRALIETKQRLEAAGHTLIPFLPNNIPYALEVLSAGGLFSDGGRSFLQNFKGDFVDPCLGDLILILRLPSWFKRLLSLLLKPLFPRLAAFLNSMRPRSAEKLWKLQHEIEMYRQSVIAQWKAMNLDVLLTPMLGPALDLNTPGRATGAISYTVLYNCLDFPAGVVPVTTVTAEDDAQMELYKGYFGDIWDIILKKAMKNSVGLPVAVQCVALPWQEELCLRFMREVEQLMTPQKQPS", "assay": "Assay Method 2: FAAH assay, 3H-anandamide hydrolysis in homogenate of SK-N-MC cells transfected with rat FAAH", "format": "biochemical", "settings": "average of results, > = solubility limit or highest concentration tested", "procedure,_shortened": "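Read-out is scintillation counting of [3H]-ethanolamine passing through activated charcoal, after 1 h at rt with 80 nM final [3H]-AEA. Enzyme source: lysate of G418-selected SK-N-MC clones expressing rat FAAH, homogenized in Tris/EDTA/glycerol/0.02% Triton buffer, pH 9.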"}, "[2]": {"biological_target": "T2, FAAH (Homo sapiens, UniProt O00519)", "T2 sequence (O00519 1-579)": "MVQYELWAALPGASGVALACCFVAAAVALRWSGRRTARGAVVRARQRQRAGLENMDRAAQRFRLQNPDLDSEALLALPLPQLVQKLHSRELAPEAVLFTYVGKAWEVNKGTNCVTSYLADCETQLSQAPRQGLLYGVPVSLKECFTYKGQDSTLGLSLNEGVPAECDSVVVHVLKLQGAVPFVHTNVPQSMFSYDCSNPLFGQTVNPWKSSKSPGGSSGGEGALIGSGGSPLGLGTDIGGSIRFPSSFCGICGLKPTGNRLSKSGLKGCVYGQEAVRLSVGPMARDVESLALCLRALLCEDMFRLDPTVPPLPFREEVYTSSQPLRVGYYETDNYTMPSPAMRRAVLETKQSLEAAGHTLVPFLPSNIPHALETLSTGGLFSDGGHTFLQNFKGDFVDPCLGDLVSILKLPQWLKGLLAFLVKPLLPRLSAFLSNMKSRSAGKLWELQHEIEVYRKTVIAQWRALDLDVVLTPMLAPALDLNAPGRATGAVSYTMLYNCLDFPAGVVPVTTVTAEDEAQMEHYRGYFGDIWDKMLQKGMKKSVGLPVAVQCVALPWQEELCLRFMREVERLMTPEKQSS", "assay": "Assay Method 1: FAAH assay, 3H-anandamide hydrolysis in homogenate of T84 cells or SK-N-MC cells transfected with human FAAH", "format": "biochemical", "settings": "average of results, > = solubility limit or highest concentration tested", "procedure,_shortened": "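Hydrolysis of ^3H-anandamide (80 nM final, added last) was measured over 1 h at rt, using test compound with homogenate of T84 cells or human FAAH-transfected SK-N-MC cells. The homogenization buffer was 125 mM Tris, 1 mM EDTA, 0.02% Triton X-100, pH 9. Unbound labelled ethanolamine was passed through charcoal filters and scintillation-counted.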"}},
  "data": [
    {"smiles": "O=C(Nc1noc2ccccc12)N1CCN(Cc2cccc(Oc3ccc(C(F)(F)F)cc3)c2)CC1", "note": "[Example 109, N-1,2-Benzisoxazol-3-yl-4-{3-[4-(trifluoromethyl)phenoxy]benzyl}-piperazine-1-carboxamide]", "values": [
      {"measurement": "IC50", "setting": "[1]", "value": 0.004, "unit": "µM"},
      {"measurement": "IC50", "setting": "[2]", "value": 0.006, "unit": "µM"}
    ]},
    {"smiles": "O=C(Nc1noc2cc(F)ccc12)N1CCN(Cc2cccc(Oc3ccc(Cl)cc3)c2)CC1", "note": "[Example 245, 4-[3-(4-Chloro-phenoxy)-benzyl]-piperazine-1-carboxylic acid (6-fluoro-benzo[d]isoxazol-3-yl)-amide]", "values": [
      {"measurement": "IC50", "setting": "[1]", "value": 0.015, "unit": "µM"},
      {"measurement": "IC50", "setting": "[2]", "value": 0.019, "unit": "µM"}
    ]}
  ]
}
